Measured values taken from paper PMC4448987, “A neuroligin-1-derived peptide stimulates phosphorylation of the NMDA receptor NR1 subunit and rescues MK-801-induced decrease in long-term potentiation and memory impairment” (Pharmacology Research & Perspectives, 2015).
Where a name gives a salt, the structure may show the parent alone.

How the values were obtained:
[1] = tested on: hippocampal slices, CA3-CA1 synapse (fEPSP slope); test: LTP in acute hippocampal slices from mice injected s.c.; format: in vivo, C57BL/6N mice; settings: mice injected with MK-801 0.1 mg/kg s.c. alone, 1 h before sacrifice; slope 25-30 min after HFS vs before; mean ± SEM, n = 6
Experimental: Juvenile C57BL/6N mice of both sexes (postnatal day 16–24; Taconic, Ejby, Denmark) were injected subcutaneously (s.c.) with 10 mg/kg of the neurolide-1 peptide solution (10 mg/mL) and again 23 h later with 10 mg/kg of the neurolide-1 peptide solution (10 mg/mL) and 0.1 mg/kg MK-801 solution (0.025 mg/mL). Mice receiving the injection with the MK-801 solution only or untreated mice served as control groups. The young mice were rapidly and humanely euthanized with a minimum of distress by decapitation at a time point corresponding to 24 h after first injection. Preceding anesthetic was omitted to preserve the tissue free of drug residues and brain slice functions as unaltered as possible when performing the physiological measurements. After decapitation, the brain was removed. […]
Measurements were made in oxygenated aCSF at room temperature (1.1 mL/min). […] The field potential in the stratum radiatum of the CA1 area of the hippocampus was recorded with an extracellular glass microelectrode (4–6 MΩ, filled with aCSF), positioned at least 500 μm away from the stimulation electrode. […]

[2] = tested on: male Wistar rats; test: Spatial memory in the Morris water maze; format: in vivo; settings: rat, n = 12
Experimental: The Morris water-maze test (Morris [1984]) was performed as previously described (Kraev et al. [2011]) with slight modifications (see Data S1). Male Wistar rats (Charles River), weighing 150–200 g on the day of arrival were used. To investigate for potential effects on memory consolidation, neurolide-1 was injected immediately after the training sessions on day 1 and 2 (n = 12 in each group). To test for potential effects on memory acquisition neurolide-1 was injected 2 h before start of training on training day 1 and 2 (n = 12 in each group). Finally, to test for potential effects on MK-801-induced learning deficiencies neurolide-1 was injected 2 h before start of training on day 2 and 3 in animals, which had received an injection with MK-801 30 min earlier (n = 6–9 in each group). In a slightly modified version of the MK-801 experiments a group of animals received a neurolide-1 injection immediately after the training sessions on day 1, and then a neurolide-1 injection 2 h before start of training on day 2, preceded by an MK-801 injection 30 min earlier (n = 12 in each group). Terminally, rats were rapidly and humanely rendered unconscious by concussive stunning and euthanized by cervical dislocation.
The Morris water maze test (Morris, 1984) was conducted in a 160 cm wide circular black tank placed in a dimly lit room and filled with 21°C water up to 20 cm from the top. The tank was surrounded by visual orientation marks, and a 10 cm wide escape platform was placed 1.5 cm below the water level for it to be unseen. A video camera was placed above the tank and connected to a computerized tracking system (Ethovision 3.1, Noldus IT, Wageningen, Holland). The tank was divided into four equal-size quadrants that also served as starting positions. The latency to locate the platform, time spent swimming, and swimming speed were scored within the defined zones (i.e., total area, quadrants, and a platform circle that was 60 cm in diameter with the center in the original platform location). Prior to training, the rats were handled 2 min daily for 5 days to minimize stress during the experiments.
Reference memory training consisted of three consecutive trials daily for 3 days. Each trial began with placing the animal in the water facing the wall of the pool. The starting position differed for each trial but was identical for all animals. In each trial, the animal was allowed 90 s to locate the platform. […] After each trial, the rats were allowed 20 s of orientation time on the platform and then removed from the pool for 20 s before the next trial was initiated. After the last trial each day, the animals were dried and returned to their home cages.
To test for effects on long-term memory, the animals were tested in a probe trial 24 h after the last reference memory training. In the probe trial, the platform was removed, and the animals began from a position in a quadrant adjacent to the original platform quadrant. The rats were allowed to swim for 60 s, after which the trial was stopped.

[3] = tested on: male Wistar rats; test: Y maze test (spontaneous alternation); format: in vivo, rat; settings: n = 6-12
Experimental: NMDA-mediated effects of Neurolide-1 on spatial working memory performance was assessed by recording spontaneous alternation behavior in a Y maze test performed as described previously (Wegener et al. [2011]), (See Data S1). Initially, adult male Wister rats (420–490 g, n = 6–12; Charles River) were injected s.c., three times at 28, 4, and 2 h before start of the Y maze test. One group received Neurolide-1, saline, and neurolide-1 in this order. Another group received saline, MK-801, and saline in this order. A third group received neurolide-1, MK-801, and neurolide-1 in this order. And control group received saline at all times. In a second setup we tested the effect of neurolide-1 in very young male Wistar rats (4-weeks old) which received a s.c., injection of neurolide-1 or saline 2 h prior to testing them in the Y-maze (n = 11–15). Terminally, rats were rapidly and humanely rendered unconscious by concussive stunning and euthanized by cervical dislocation.
The maze was made of gray polyvinyl chloride, with three identical arms (425 mm length × 225 mm height × 145 mm width) mounted symmetrically to an equilateral triangular center section. Each rat was placed at the end of one arm and allowed to explore the apparatus freely for 8 min. The sequence and number of all arm entries were recorded for each animal throughout the testing period. An alternation was defined as entries into all three arms on consecutive occasions. Therefore, the number of maximal alternation was the total number of arm entries minus 2, and the percentage of alternation was calculated as (actual alternations / maximal alternations) × 100. The total number of arms entered during the sessions was also determined (Yamaguchi et al, 2006). Data were eliminated in cases in which the number of total arm entries was less than 10 or when the rat escaped from the Y maze. After each trial, the Y maze was cleaned with 1% Virkon S (Pharmaxim, Helsingborg, Sweden).

[4] = MK-801 0.1 mg/kg, cited from earlier work
[5] = tested on: NMDA receptor NR1 subunit (serine 897); test: NMDA receptor phosphorylation assay (immunoblot, anti-phospho-Ser897-NR1) in cultured cortical neurons; format: cell-based, Wistar rat; settings: cultured rat cortical neurons, 5 min stimulation, NL1 ectodomain up to 5.4 nmol/L, four independent experiments
Experimental: Cortical neurons were obtained from Wistar rat embryos at embryonic day 19, of both sexes, basically as previously described (Maar et al. [1997]) (see Data S1). Briefly, animals were rendered unconscious by concussive stunning and euthanized by cervical dislocation. Hereafter, the embryonic brains were collected and cortical neurons were dissociated and seeded in 60-mm tissue culture dishes coated with 1 μg/mL of poly-D-lysine (Sigma-Aldrich, St. Louis, MO) and grown for 8 days before treatment. Then, the cultures were stimulated with either the NL1 ectodomain (0.2, 0.6, 1.8, and 5.4 nmol/L) or neurolide-1 (0.1, 0.3, 1, and 2.7 μmol/L) for 5 min. The cells were lysed, and proteins were resolved by sodium dodecyl sulfate-polyacrylamide gel electrophoresis followed by immunoblotting using rabbit anti-Ser897-NR1 antibody (1:500; Millipore, Billerica, MA), mouse anti-β-tubulin antibody (1:50,000; Sigma-Aldrich), and IRDye secondary antibodies (Odyssey, Lincoln, NE). The bands were visualized using the Odyssey CLX Infrared Imaging System (Odyssey). Four independent experiments with stimulation by NL1 ectodomain and eight independent experiments with stimulation by neurolide-1 were performed.

Molecule: C[C@]12N[C@H](Cc3ccccc31)c1ccccc12 [MK-801, (5S,10R)-(+)-5-methyl-10,11-dihydro-5H-dibenzo[a,d]cyclohepten-5,10-imine maleate]
- increase of fEPSP slope after high-frequency stimulation (LTP) [1]: 27 ± 5%
- learning (escape latency) in the water maze ([2]; MK-801 0.1 mg/kg s.c. on day 2, 2.5 h before first training session): strongly inhibited learning
- velocity in the water maze ([2]; MK-801 0.1 mg/kg s.c. with or without neurolide-1 10 mg/kg s.c. (long-term regimen)): Neither treatments affected velocity
- alternation rate ([3]; adult rats 420-490 g, MK-801 0.1 mg/kg s.c. 4 h before test): ~50%
- total number of arm entries, single treatment ([3]; adult rats, peptide alone or MK-801 alone): did not change
- time after injection at which the increase in stereotypy peaked ([4]; returned to baseline 2 h later, ref Homayoun et al. [2004], Su et al. [2007]): 40 min
- motility ([4]; ref Verma and Moghaddam [1996], Homayoun et al. [2004]): induce hypermotility

B1: NL1: rat recombinant NL1 ectodomain obtained from R&D Systems (protein, UniProt Q62765 46-697, looked up)
extracellular domain: QKLDDVDPLVTTNFGKIRGIKKELNNEILGPVIQFLGVPYAAPPTGEHRFQPPEPPSPWSDIRNATQFAPVCPQNIIDGRLPEVMLPVWFTNNLDVVSSYVQDQSEDCLYLNIYVPTEDVKRISKECARKPGKKICRKGDIRDSGGPKPVMVYIHGGSYMEGTGNLYDGSVLASYGNVIVITVNYRLGVLGFLSTGDQAAKGNYGLLDLIQALRWTSENIGFFGGDPLRITVFGSGAGGSCVNLLTLSHYSEGNRWSNSTKGLFQRAIAQSGTALSSWAVSFQPAKYARILATKVGCNVSDTVELVECLQKKPYKELVDQDVQPARYHIAFGPVIDGDVIPDDPQILMEQGEFLNYDIMLGVNQGEGLKFVENIVDSDDGVSASDFDFAVSNFVDNLYGYPEGKDVLRETIKFMYTDWADRHNPETRRKTLLALFTDHQWVAPAVATADLHSNFGSPTYFYAFYHHCQTDQVPAWADAAHGDEVPYVLGIPMIGPTELFPCNFSKNDVMLSAVVMTYWTNFAKTGDPNQPVPQDTKFIHTKPNRFEEVAWTRYSQKDQLYLHIGLKPRVKEHYRANKVNLWLELVPHLHNLNDISQYTSTTTKVPSTDITLRPTRKNSTPVTSAFPTAKQDDPKQQPSPFSVDQRDYSTELS
modifications: extracellular domain
notes: rat recombinant NL1 ectodomain obtained from R&D Systems
- effect on NR1 phosphorylation at higher concentrations [5]: did not have a statistically significant effect
